For orientation: IC50 means the concentration that inhibits the measured activity by half.

Drawing on patent US11390618B2, “Inhibitors of cyclin-dependent kinases” (Kinnate Biopharma Inc., priority 2018, dated 2022), this text covers IC50 for two compounds.

For the assay, the target named is CDK12 wt/CycK (Homo sapiens (Human), UniProt Q9NYV4). Nature of the assay: Radiometric protein kinase assay (33PanQinase Activity Assay), Assay Condition A (thiol containing conditions). The assay is classed as biochemical. As to conditions: thiol containing conditions (1.2 mM DTT), ATP at apparent Km. As for the experimental part: Objective: The IC50 profile of test compounds was determined using three protein kinases.
Sequence of CDK12 wt/CycK (Q9NYV4 whole entry): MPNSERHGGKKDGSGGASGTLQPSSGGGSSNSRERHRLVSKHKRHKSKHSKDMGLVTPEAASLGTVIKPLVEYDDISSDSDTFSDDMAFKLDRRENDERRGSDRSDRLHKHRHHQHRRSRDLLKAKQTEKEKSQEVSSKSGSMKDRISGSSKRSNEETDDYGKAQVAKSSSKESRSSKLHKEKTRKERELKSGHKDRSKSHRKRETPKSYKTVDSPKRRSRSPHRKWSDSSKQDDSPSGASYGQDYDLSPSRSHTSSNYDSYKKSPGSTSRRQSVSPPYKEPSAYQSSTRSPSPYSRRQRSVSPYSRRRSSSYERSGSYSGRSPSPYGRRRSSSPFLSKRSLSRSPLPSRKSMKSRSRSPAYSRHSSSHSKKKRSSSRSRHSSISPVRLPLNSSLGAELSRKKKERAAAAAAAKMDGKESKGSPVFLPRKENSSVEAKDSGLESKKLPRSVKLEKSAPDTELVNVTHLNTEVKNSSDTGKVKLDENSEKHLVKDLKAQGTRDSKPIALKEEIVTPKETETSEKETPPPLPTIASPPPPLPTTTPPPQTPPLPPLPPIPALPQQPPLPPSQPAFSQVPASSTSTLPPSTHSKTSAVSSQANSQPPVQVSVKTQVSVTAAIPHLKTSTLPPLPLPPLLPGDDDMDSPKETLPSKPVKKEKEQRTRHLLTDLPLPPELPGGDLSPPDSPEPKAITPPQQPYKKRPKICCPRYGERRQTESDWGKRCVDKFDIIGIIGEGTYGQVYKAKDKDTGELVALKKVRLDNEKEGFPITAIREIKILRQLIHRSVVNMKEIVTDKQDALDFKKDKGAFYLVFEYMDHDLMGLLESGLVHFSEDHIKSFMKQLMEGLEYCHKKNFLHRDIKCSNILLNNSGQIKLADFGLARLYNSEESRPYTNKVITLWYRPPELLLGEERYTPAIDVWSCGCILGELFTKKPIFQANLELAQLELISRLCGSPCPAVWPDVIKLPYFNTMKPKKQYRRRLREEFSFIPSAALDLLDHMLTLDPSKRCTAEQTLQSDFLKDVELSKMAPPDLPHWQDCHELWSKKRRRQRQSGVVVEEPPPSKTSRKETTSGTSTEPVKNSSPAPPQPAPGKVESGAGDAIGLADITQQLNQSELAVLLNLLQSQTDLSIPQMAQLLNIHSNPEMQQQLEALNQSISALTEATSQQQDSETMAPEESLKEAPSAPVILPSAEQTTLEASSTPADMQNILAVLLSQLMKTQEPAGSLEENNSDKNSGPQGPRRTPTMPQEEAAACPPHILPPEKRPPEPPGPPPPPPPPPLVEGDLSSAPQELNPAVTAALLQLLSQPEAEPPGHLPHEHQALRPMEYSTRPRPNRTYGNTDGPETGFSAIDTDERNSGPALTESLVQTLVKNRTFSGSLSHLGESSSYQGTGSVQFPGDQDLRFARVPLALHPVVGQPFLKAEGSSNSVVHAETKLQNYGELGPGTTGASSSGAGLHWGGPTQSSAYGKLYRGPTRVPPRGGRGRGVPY
Sequence of CDK12 wt/CycK (O75909 whole entry partner): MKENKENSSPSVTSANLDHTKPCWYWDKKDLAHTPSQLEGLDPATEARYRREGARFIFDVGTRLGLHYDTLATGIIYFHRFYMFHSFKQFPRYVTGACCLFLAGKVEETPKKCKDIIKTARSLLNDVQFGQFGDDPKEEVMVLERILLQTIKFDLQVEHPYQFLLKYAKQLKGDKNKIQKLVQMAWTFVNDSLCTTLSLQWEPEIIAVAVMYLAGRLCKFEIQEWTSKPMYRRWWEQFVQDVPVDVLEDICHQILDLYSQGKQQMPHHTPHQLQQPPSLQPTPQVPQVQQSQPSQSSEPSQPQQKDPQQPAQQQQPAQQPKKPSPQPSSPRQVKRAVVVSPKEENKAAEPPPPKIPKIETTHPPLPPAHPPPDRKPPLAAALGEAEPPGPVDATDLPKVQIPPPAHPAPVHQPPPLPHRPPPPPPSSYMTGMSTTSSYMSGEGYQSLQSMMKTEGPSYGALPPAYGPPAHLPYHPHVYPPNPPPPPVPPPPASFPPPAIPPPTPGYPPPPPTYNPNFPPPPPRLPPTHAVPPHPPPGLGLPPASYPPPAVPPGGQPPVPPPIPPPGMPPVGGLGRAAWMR
Test compounds: The compounds were provided as pre-weighed powders in vials. The compounds were dissolved to 1×10^−02M by adding DMSO. 100 μl of each of the resulting stock solutions were transferred into column 2 of four 96 well “master plates”.
Prior to testing, the 1×10^−02M stock solutions in column 2 of the master plates were subjected to a serial, semi-logarithmic dilution using 100% DMSO as a solvent. […] Column 1 and 7 were filled with 100% DMSO as controls. […]
The reaction cocktails were incubated at 30° C. for 60 minutes. […] Incorporation of ^33Pi was determined with a microplate scintillation counter (Microbeta, Wallac). […]
Evaluation of raw data: The median value of the counts in column 1 (n=8) of each assay plate was defined as “low control”. This value reflects unspecific binding of radioactivity to the plate in the absence of a protein kinase but in the presence of the substrate. […]
As part of the data evaluation the low control value from a particular plate was subtracted from the high control value as well as from all 80 “compound values” of the corresponding plate. The residual activity (in %) for each well of a particular plate was calculated by using the following formula: Res. Activity (%)=100×[(cpm of compound−low control)/(high control−low control)] […]

Turning to “(R)—N-(3-(3-((5-chloropyrimidin-2-yl)amino)pyrrolidine-1-carbonyl)phenyl)-2-cyano-3-(dimethylamino)acrylamide [Example 135]”, the IC50 lay in the range of 1000 to 10000 nM.
With `COc1nc(N[C@@H]2CCN(C(=O)c3ccc(NC(=O)/C=C/CN4CC[C@@H](F)C4)cn3)C2)ncc1Cl` [Example 170, (E)-N-(6-((R)-3-((5-chloro-4-methoxypyrimidin-2-yl)amino)pyrrolidine-1-carbonyl)pyridin-3-yl)-4-((R)-3-fluoropyrrolidin-1-yl)but-2-enamide] the figure was 100 to 1000 nM.
